Assay results taken from US20210130401A1, “PEPTIDOMIMETIC INHIBITORS OF THE WDR5-MLL INTERACTION” (THE REGENTS OF THE UNIVERSITY OF MICHIGAN, priority 2017, published 2021).
Where two headings read alike, the source gives them in different places. Starred links: 1 amine or outer side, 2 acyl side, 3 side chain; linkers in the order of their positions; H or OH if unused. Positions of bridges follow the written chain, without caps; N, C: chain ends. Non-standard residues stand in square brackets, D forms with d. Residues, ends and D or L forms follow the SMILES beside them. *: point of attachment. Arg(Nω,Nω'-propylene) = N[C@@H](CCCNC1=NCCCN1)C(=O)O; dαMeDab = C[C@](CCN[*:3])(N[*:1])C(=O)[*:2]; dPhg = N[C@@H](C(=O)O)c1ccccc1; Isobutyryl = CC(C)C(=O)*; Nva = CCC[C@H](N)C(=O)O; Abu = CC[C@H](N)C(=O)O

Tests used:
[1] = tested on: MOLM-13 leukemia cells carrying MLL-AF9 fusion; assay: cell viability assay (WST-8), MOLM-13; format: cell-based; details: Homo sapiens, MOLM-13, 96 h, read-out: MOLM-13 IC50 (μM)
Description: To assess cell viability, MOLM-13 leukemia cells carrying MLL-AF9 fusion, MV4;11 leukemia cells carrying MLL-AF4 fusion or HL-60 leukemia cells carrying no MLL fusion were seeded 1×10^4 cell/well in 96-well plates and treated with an inhibitor for 4 days at different concentrations, in culture media containing 0.2% DMSO as the final concentration. Cell viability was determined using the WST-8 cell proliferation assay kit (Dojindo Molecular Technologies) according to manufacturer's instructions. Three independent experiments in triplicates were performed.

WDR5 = target: T1, WDR5 (Homo sapiens, UniProt P61964); assay: fluorescence polarization (FP) based competitive binding assay to WDR5 protein
T1 construct: N-terminal His-tagged WDR5 protein (residues 24-334), named WDR5Δ23; made in house; host or cells: E. coli Rosetta 2 (DE3)
Description: The plates were incubated at room temperature on a shaker for 3h, and then the mP values were measured using the Tecan Infinite M-1000 plate reader (Tecan U.S., Research Triangle Park, N.C.).

[2] = amide bond, 15-membered ring, HATU/DIEA, DMF, with chain assembly
[3] = amide bond, 14-membered ring, HATU/DIEA, DMF, with chain assembly

Row | Molecule | IC50 [1] | IC50 (WDR5) | Ki (WDR5) | also measured
1 | CC[C@@H]1NC(=O)[C@H](CCCN/C(=N\C)NC)NC(=O)[C@](C)(NC(=O)C(C)C)CC=CCNC(=O)[C@@H](c2ccccc2)NC1=O | – | – | – | ring closure, yield after HPLC (from (R)—N-((8S,11S,14R,Z)-11-ethyl-3-(methylamino)-9,12,15-trioxo-14-phenyl-2,4,10,13,16-pentaazanonadeca-2,18-dien-8-yl)-2-isobutyramido-2-methylpent-4-enamide, rcm bond, 16-membered ring, Hoveyda-Grubbs II (0.5 eq), CH2Cl2, 25.0 °C, 3 steps): 27%
2 | CC[C@@H]1NC(=O)[C@H](CCCN/C(=N\C)NS(=O)(=O)c2c(C)c(C)c3c(c2C)CC(C)(C)O3)NC(=O)[C@](C)(NC(=O)C(C)C)CC=CCNC(=O)[C@@H](c2ccccc2)NC1=O | – | – | – | ring closure, yield after HPLC (from (R)—N-((8S,11S,14R,E)-11-ethyl-9,12,15-trioxo-3-(2,2,4,6,7-pentamethyl-2,3-dihydrobenzofuran-5-sulfonamido)-14-phenyl-2,4,10,13,16-pentaazanonadeca-2,18-dien-8-yl)-2-isobutyramido-2-methylpent-4-enamide, rcm bond, 16-membered ring, Hoveyda-Grubbs II (0.5 eq), CH2Cl2, 25.0 °C, 3 steps): 75%
3 | CC[C@@H]1NC(=O)[C@H](CCCNC(=N)NS(=O)(=O)c2c(C)c(C)c3c(c2C)CC(C)(C)O3)NC(=O)[C@](C)(NC(=O)C(C)C)CC=CCCCCCNC(=O)[C@@H](c2ccccc2)NC1=O | – | – | – | ring closure, yield after HPLC (from iPrCO-(R)-αMe-allylGly-Arg(Pbf)-Abu-dPhg-NH-(hept-6-enyl)?, rcm bond, 20-membered ring, Hoveyda-Grubbs II (0.5 eq), CH2Cl2, 25.0 °C, 3 steps): 27%
4 | CC[C@@H]1NC(=O)[C@H](CCCNC(=N)NS(=O)(=O)c2c(C)c(C)c3c(c2C)CC(C)(C)O3)NC(=O)[C@](C)(NC(=O)C(C)C)CC=CCCCNC(=O)[C@@H](c2ccccc2)NC1=O | – | – | – | ring closure, yield after HPLC (from iPrCO-(R)-αMe-allylGly-Arg(Pbf)-Abu-dPhg-NH-(pent-4-enyl)?, rcm bond, 18-membered ring, Hoveyda-Grubbs II (0.5 eq), CH2Cl2, 25.0 °C, 3 steps): 46%
5 | CC[C@@H]1NC(=O)[C@H](CCCNC(=N)NS(=O)(=O)c2c(C)c(C)c3c(c2C)CC(C)(C)O3)NC(=O)[C@](C)(NC(=O)C(C)C)CC=CCCNC(=O)[C@@H](c2ccccc2)NC1=O | – | – | – | ring closure, yield after HPLC (from iPrCO-(R)-αMe-allylGly-Arg(Pbf)-Abu-dPhg-NH-(but-3-enyl)?, rcm bond, 17-membered ring, Hoveyda-Grubbs II (0.5 eq), CH2Cl2, 25.0 °C, 3 steps): 28%
6 | CC[C@@H]1NC(=O)[C@H](CCCNC(=N)NS(=O)(=O)c2c(C)c(C)c3c(c2C)CC(C)(C)O3)NC(=O)[C@](C)(NC(=O)C(C)C)CC=CCN(C)C(=O)[C@@H](c2ccc(Cl)cc2)NC1=O | – | – | – | ring closure, yield after HPLC (from (R)—N-((6S,9S,12R)-12-(4-chlorophenyl)-9-ethyl-1-imino-14-methyl-7,10,13-trioxo-1-(2,2,4,6,7-pentamethyl-2,3-dihydrobenzofuran-5-sulfonamido)-2,8,11,14-tetraazaheptadec-16-en-6-yl)-2-isobutyramido-2-methylpent-4-enamide, rcm bond, 16-membered ring, Hoveyda-Grubbs II (0.5+0.5 eq), CH2Cl2, 45.0 °C, 3 steps): 11%
7 | CC[C@@H]1NC(=O)[C@H](CCCNC(=N)NS(=O)(=O)c2c(C)c(C)c3c(c2C)CC(C)(C)O3)NC(=O)[C@](C)(NC(=O)C(C)C)CC=CCN(C)C(=O)[C@@H](c2ccc(F)cc2)NC1=O | – | – | – | ring closure, yield after HPLC (from (R)—N-((6S,9S,12R)-9-ethyl-12-(4-fluorophenyl)-1-imino-14-methyl-7,10,13-trioxo-1-(2,2,4,6,7-pentamethyl-2,3-dihydrobenzofuran-5-sulfonamido)-2,8,11,14-tetraazaheptadec-16-en-6-yl)-2-isobutyramido-2-methylpent-4-enamide, rcm bond, 16-membered ring, Hoveyda-Grubbs II (0.5+0.5 eq), CH2Cl2, 45.0 °C, 3 steps): 11%
8 | CC[C@@H]1NC(=O)[C@H](CCCNC(=N)NS(=O)(=O)c2c(C)c(C)c3c(c2C)CC(C)(C)O3)NC(=O)[C@](C)(NC(=O)C(C)C)CC=CCN(C)C(=O)[C@@H](c2ccccc2)NC1=O | – | – | – | ring closure, yield after HPLC (from (R)—N-((6S,9S,12R)-9-ethyl-1-imino-14-methyl-7,10,13-trioxo-1-(2,2,4,6,7-pentamethyl-2,3-dihydrobenzofuran-5-sulfonamido)-12-phenyl-2,8,11,14-tetraazaheptadec-16-en-6-yl)-2-isobutyramido-2-methylpent-4-enamide, rcm bond, 16-membered ring, Hoveyda-Grubbs II (0.5+0.5 eq), CH2Cl2, 45.0 °C, 3 steps): 18%
9 | CC[C@@H]1NC(=O)[C@H](CCCNC(=N)NS(=O)(=O)c2c(C)c(C)c3c(c2C)CC(C)(C)O3)NC(=O)[C@](C)(NC(=O)C(C)C)CC=CCNC(=O)[C@@H](c2ccccc2)NC1=O | – | – | – | ring closure, yield after HPLC (from iPrCO-(R)-αMe-allylGly-Arg(Pbf)-Abu-dPhg-NH-allyl?, rcm bond, 16-membered ring, Hoveyda-Grubbs II (0.5 eq), CH2Cl2, 25.0 °C, 3 steps): 53%
10 | CC[C@@H]1NC(=O)[C@H](CCCNC(=N)N)NC(=O)[C@](C)(NC(=O)C(C)C)CCNC(=O)[C@@H](c2ccc3ccccc3c2)NC1=O [Cpd. No. 82, N-((3R,6S,9S,12R)-6-ethyl-9-(3-guanidinopropyl)-12-methyl-3-(naphthalen-2-yl)-2,5,8,11-tetraoxo-1,4,7,10-tetraazacyclotetradecan-12-yl)isobutyramide] | 0.054 µM | 2.3 nM | < 1 nM | –
11 | CC[C@@H]1NC(=O)[C@H](CCCNC(=N)N)NC(=O)[C@](C)(NC(=O)C(C)C)CCNC(=O)[C@@H](c2cccc(Cl)c2)NC1=O [Cpd. No. 84, N-((3R,6S,9S,12R)-3-(3-chlorophenyl)-6-ethyl-9-(3-guanidinopropyl)-12-methyl-2,5,8,11-tetraoxo-1,4,7,10-tetraazacyclotetradecan-12-yl)isobutyramide] | 0.51 µM | 1.48 nM | < 1 nM | –
12 | CCC[C@@H]1NC(=O)[C@H](CCCNC(=N)N)NC(=O)[C@](C)(NC(=O)C(C)C)CCNC(=O)[C@@H](c2ccccc2)NC1=O [Cpd. No. 88, N-((3R,6S,9S,12R)-9-(3-guanidinopropyl)-12-methyl-2,5,8,11-tetraoxo-3-phenyl-6-propyl-1,4,7,10-tetraazacyclotetradecan-12-yl)isobutyramide] (Isobutyryl-[dαMeDab]R[Nva][dPhg]; lactam 1-C) | 6.33 µM | 2.38 nM | < 1 nM | –
13 | CC(C)C(=O)N[C@]1(C)CCNC(=O)[C@@H](c2ccccc2)NC(=O)[C@H](C(C)C)NC(=O)[C@H](CCCNC(=N)N)NC1=O [Cpd. No. 89, N-((3R,6S,9S,12R)-9-(3-guanidinopropyl)-6-isopropyl-12-methyl-2,5,8,11-tetraoxo-3-phenyl-1,4,7,10-tetraazacyclotetradecan-12-yl)isobutyramide] (Isobutyryl-[dαMeDab]RV[dPhg]; lactam 1-C) | > 10 µM | 1.83 nM | < 1 nM | –
14 | CC[C@@H]1NC(=O)[C@H](CCCNC(=N)NC(C)=O)NC(=O)[C@](C)(NC(=O)C(C)C)CCNC(=O)[C@@H](c2ccccc2)NC1=O [Cpd. No. 91, N-((3R,6S,9S,12R)-9-(3-(3-acetylguanidino)propyl)-6-ethyl-12-methyl-2,5,8,11-tetraoxo-3-phenyl-1,4,7,10-tetraazacyclotetradecan-12-yl)isobutyramide] (Isobutyryl-[dαMeDab]R(Ac)[Abu][dPhg]; lactam 1-C) | 0.47 µM | 3.65 nM | < 1 nM | –
15 | CC[C@@H]1NC(=O)[C@H](CCCNC2=NCCCN2)NC(=O)[C@](C)(NC(=O)C(C)C)CCNC(=O)[C@@H](c2ccccc2)NC1=O [Cpd. No. 92, N-((3R,6S,9S,12R)-6-ethyl-12-methyl-2,5,8,11-tetraoxo-3-phenyl-9-(3-((1,4,5,6-tetrahydropyrimidin-2-yl)amino)propyl)-1,4,7,10-tetraazacyclotetradecan-12-yl)isobutyramide] (Isobutyryl-[dαMeDab][Arg(Nω,Nω'-propylene)][Abu][dPhg]; lactam 1-C) | 0.033 µM | 1.86 nM | < 1 nM | –
16 | CC[C@@H]1NC(=O)[C@H](CCCNC(=N)N)NC(=O)[C@](C)(NC(=O)C(C)C)CCNC(=O)[C@@H](c2ccc(OC)cc2)NC1=O [Cpd. No. 93, N-((3R,6S,9S,12R)-6-ethyl-9-(3-guanidinopropyl)-3-(4-methoxyphenyl)-12-methyl-2,5,8,11-tetraoxo-1,4,7,10-tetraazacyclotetradecan-12-yl)isobutyramide] | 0.083 µM | 1.79 nM | < 1 nM | –
17 | CC[C@@H]1NC(=O)[C@H](CCCNC(=N)N)NC(=O)[C@](C)(NC(=O)C(C)C)CCNC(=O)[C@@H](c2cccc(OC)c2)NC1=O [Cpd. No. 94, N-((3R,6S,9S,12R)-6-ethyl-9-(3-guanidinopropyl)-3-(3-methoxyphenyl)-12-methyl-2,5,8,11-tetraoxo-1,4,7,10-tetraazacyclotetradecan-12-yl)isobutyramide] | 0.56 µM | 4 nM | < 1 nM | –
18 | CC[C@@H]1NC(=O)[C@H](CCCNC2=NCCCN2)NC(=O)[C@](C)(NC(=O)C(C)C)CCNC(=O)[C@@H](c2ccc3ccccc3c2)NC1=O [Cpd. No. 98, N-((3R,6S,9S,12R)-6-ethyl-12-methyl-3-(naphthalen-2-yl)-2,5,8,11-tetraoxo-9-(3-((1,4,5,6-tetrahydropyrimidin-2-yl)amino)propyl)-1,4,7,10-tetraazacyclotetradecan-12-yl)isobutyramide] | 0.039 µM | 2.54 nM | < 1 nM | –
19 | N-((3R,6S,9S,12R)-6-ethyl-9-(3-guanidinopropyl)-2,5,8,11-tetraoxo-3-phenyl-1,4,7,10-tetraazacyclohexadecan-12-yl)isobutyramide | – | – | – | ring closure, yield after HPLC (amide bond, 16-membered ring, HATU/DIEA, DMF, 5.0 mM, with chain assembly): 12.7%
20 | N-((3R,6S,9S,12R)-6-ethyl-9-(3-guanidinopropyl)-2,5,8,11-tetraoxo-3-phenyl-1,4,7,10-tetraazacyclopentadecan-12-yl)isobutyramide | – | – | – | ring closure, yield after HPLC [2]: 21.5%
21 | N-((3R,6S,9S,12R)-6-ethyl-9-(3-guanidinopropyl)-2,5,8,11-tetraoxo-3-phenyl-1,4,7,10-tetraazacyclotetradecan-12-yl)isobutyramide | – | – | – | ring closure, yield after HPLC [3]: 21.7%
22 | N-((3R,6S,9S,12R)-6-ethyl-9-(3-guanidinopropyl)-2,5,8,11-tetraoxo-3-phenyl-1,4,7,10-tetraazacyclotridecan-12-yl)isobutyramide | – | – | – | ring closure, yield after HPLC (amide bond, 13-membered ring, HATU/DIEA, DMF, with chain assembly): 24.5%
23 | N-((3R,6S,9S,12R)-6-ethyl-9-(3-guanidinopropyl)-12-methyl-2,5,8,11-tetraoxo-3-phenyl-1,4,7,10-tetraazacyclopentadecan-12-yl)isobutyramide | – | – | – | ring closure, yield after HPLC [2]: 19.4%
24 | N-((3R,6S,9S,12R)-6-ethyl-9-(3-guanidinopropyl)-12-methyl-2,5,8,11-tetraoxo-3-phenyl-1,4,7,10-tetraazacyclotetradecan-12-yl)isobutyramide | – | – | – | ring closure, yield after HPLC [3]: 8.7%
